Assay results taken from publication PMC9102066, “Cloning and Functional Characterization of Dog OCT1 and OCT2: Another Step in Exploring Species Differences in Organic Cation Transporters” (International Journal of Molecular Sciences, 2022).
Structures can show the parent of a compound that is named as a salt.

Assays:
mouse OCT1 = molecular target: T1, mouse OCT1 (Mus musculus, UniProt O08966); assay: Uptake in HEK293 cells stably overexpressing mouse OCT1; assay type: in vitro ADME; conditions: intrinsic clearance = vmax divided by KM for each experiment
T1 construct: expressed in transfected cells; host or cells: HEK293 (Flp-In system)
T1 sequence (O08966 1-556): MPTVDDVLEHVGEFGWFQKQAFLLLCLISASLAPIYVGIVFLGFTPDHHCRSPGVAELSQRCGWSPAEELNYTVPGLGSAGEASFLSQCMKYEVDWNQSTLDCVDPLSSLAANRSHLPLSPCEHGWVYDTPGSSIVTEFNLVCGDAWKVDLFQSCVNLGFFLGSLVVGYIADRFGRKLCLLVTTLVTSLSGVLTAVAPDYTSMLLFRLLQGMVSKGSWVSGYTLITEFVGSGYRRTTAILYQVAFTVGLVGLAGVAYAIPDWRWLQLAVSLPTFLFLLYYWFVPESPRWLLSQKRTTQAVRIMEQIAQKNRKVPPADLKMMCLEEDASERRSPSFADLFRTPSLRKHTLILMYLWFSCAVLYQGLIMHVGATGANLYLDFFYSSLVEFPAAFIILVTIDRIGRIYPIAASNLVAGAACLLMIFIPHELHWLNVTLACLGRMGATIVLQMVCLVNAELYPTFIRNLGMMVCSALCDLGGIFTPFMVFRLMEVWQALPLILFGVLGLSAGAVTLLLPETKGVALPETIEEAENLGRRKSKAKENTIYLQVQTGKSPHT
From the text: (§1) Cells were passaged twice a week.
(§2) Intracellular substrate concentrations were quantified using LC-MS/MS.

human OCT2 = molecular target: T2, human OCT2 (Homo sapiens, UniProt O15244); assay: Uptake in HEK293 cells stably overexpressing human OCT2; assay type: in vitro ADME; conditions: intrinsic clearance = vmax divided by KM for each experiment
T2 construct: expressed in transfected cells; host or cells: HEK293 (Flp-In system)
T2 sequence (O15244 1-555): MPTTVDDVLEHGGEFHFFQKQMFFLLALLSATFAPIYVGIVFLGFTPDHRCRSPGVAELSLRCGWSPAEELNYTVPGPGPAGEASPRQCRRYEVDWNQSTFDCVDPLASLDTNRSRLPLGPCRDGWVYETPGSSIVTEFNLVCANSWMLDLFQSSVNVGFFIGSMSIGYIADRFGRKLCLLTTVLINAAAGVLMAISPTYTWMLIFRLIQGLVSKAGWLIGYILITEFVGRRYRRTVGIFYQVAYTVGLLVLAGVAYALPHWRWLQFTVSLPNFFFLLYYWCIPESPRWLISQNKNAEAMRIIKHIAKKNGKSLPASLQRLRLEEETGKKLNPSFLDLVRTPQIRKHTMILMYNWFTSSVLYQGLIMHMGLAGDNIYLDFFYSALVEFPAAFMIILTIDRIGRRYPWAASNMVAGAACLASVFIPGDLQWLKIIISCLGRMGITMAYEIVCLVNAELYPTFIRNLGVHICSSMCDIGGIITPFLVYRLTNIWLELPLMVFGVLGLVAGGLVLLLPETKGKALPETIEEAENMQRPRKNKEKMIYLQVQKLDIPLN
From the text: as §1, §2

human OCT1 = molecular target: T3, human OCT1 (Homo sapiens, UniProt O15245); assay: Uptake in HEK293 cells stably overexpressing human OCT1; assay type: in vitro ADME; conditions: for CLint ± SEM, hOCT1: intrinsic clearance = vmax divided by KM for each experiment
T3 construct: expressed in transfected cells; host or cells: HEK293 (Flp-In system)
T3 sequence (O15245 1-554): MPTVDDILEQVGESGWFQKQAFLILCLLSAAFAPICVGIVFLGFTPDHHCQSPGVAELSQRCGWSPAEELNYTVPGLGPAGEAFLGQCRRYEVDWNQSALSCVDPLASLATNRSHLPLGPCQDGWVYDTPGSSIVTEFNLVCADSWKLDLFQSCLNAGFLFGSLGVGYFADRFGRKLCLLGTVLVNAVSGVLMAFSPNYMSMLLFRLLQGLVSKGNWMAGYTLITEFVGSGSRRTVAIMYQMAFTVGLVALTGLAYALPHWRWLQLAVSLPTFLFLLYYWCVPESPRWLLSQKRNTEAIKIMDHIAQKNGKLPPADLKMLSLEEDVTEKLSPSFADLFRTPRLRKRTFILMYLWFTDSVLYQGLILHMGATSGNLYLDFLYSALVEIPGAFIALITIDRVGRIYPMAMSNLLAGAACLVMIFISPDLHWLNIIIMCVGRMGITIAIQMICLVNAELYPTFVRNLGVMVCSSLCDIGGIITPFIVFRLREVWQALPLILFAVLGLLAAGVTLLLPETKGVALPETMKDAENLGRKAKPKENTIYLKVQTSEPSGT
From the text: as §1, §2

dog OCT2 = assay: Uptake in HEK293 cells stably overexpressing dog OCT2; assay type: in vitro ADME
From the text: as §1, §2

dog OCT1 = assay: Uptake in HEK293 cells stably overexpressing dog OCT1; conditions: for Km at 2 min: dog; for CLint ± SEM, dOCT1: intrinsic clearance = vmax divided by KM for each experiment
Procedure: The total uptake is shown for the overexpressing and control cells (left hand side). OCT1-mediated uptake (right hand side) was calculated by subtracting the uptake of control cells (pcDNA5) from the uptake of OCT1-overexpressing cells. The means and standard errors of the means are shown for at least three independent experiments.
For generation and characterization, see the Supplementary Methods, Figure S7, and [29, 47]. Cells were cultured in Dulbecco’s Modified Eagle’s Medium (DMEM) supplemented with 10% FBS, 100 U/mL penicillin, and 100 µg/mL streptomycin at 37 °C and 5% CO2. Cells were passaged twice a week.
At 48 h prior to the experiment, 6 × 10^5 cells were seeded per well in 12-well plates pre-coated with poly-D-lysine.
Cellular uptake experiments were performed at 37 °C and pH 7.4 using Hanks’ Buffered Salt Solution (HBSS) supplemented with 10 mM HEPES (referred to as HBSS+ in the following). Cells were washed with 1 mL pre-warmed (37 °C) HBSS+ and uptake was initiated by adding 400 µL of pre-warmed HBSS+ containing the substrate. Uptake was allowed for exactly 2 min and stopped by adding 2 mL ice-cold HBSS+. Cells were washed twice with 2 mL ice-cold HBSS+ then lysed with 80% acetonitrile supplemented with internal standard. The intracellularly accumulated substrate concentrations were measured using LC-MS/MS as described in the following and normalized to the amount of total protein in the samples as measured using the bicinchoninic acid assay.
Intracellular substrate concentrations were quantified using LC-MS/MS. […] The pellet was reconstituted with 200 µL 0.1% formic acid and between 5 and 10 µL was injected into the LC-MS/MS system (Table S2).
An API4000 QTRAP tandem mass spectrometer with ESI interface (AB SCIEX, Darmstadt, Germany) coupled to a Shimadzu Nexera X2 UHPLC system with LC 30AD pumps and SiL 30AC autosampler (Shimadzu, Duisburg, Germany) was used for analysis.
Intrinsic clearance CLint was calculated by dividing vmax by KM for each experiment. Kinetic parameters were compared between OCT1 orthologs using an ANOVA followed by Tukey’s honestly significant difference post hoc comparisons in SPSS Statistics version 28 (SPSS Inc., IBM, Chicago, IL, USA).

With `CCCC[N+]1(C)[C@@H]2C[C@@H](OC(=O)[C@H](CO)c3ccccc3)C[C@H]1[C@@H]1O[C@@H]12` (stereo partly shown) [Butylscopolamine, butylscopolamine bromide] the “CLint ± SEM, mOCT1” value (mouse OCT1) was 131 ± 25.6 µL × min^−1 × mg Protein^−1, the “CLint ± SEM, hOCT2” value (human OCT2) was 81.6 ± 2.16 µL × min^−1 × mg Protein^−1 and the “CLint ± SEM, hOCT1” value (human OCT1) was 84.4 ± 6.76 µL × min^−1 × mg Protein^−1. The “fold lower transport by dog OCT2 compared to human OCT2” value (dog OCT2; dog OCT2 versus human OCT2) was 10 fold, the “uptake by dog OCT2 cells compared to control cells, in words” value (dog OCT2; especially at low concentrations, data could not be fitted to the Michaelis–Menten equation) was “only a slight increase” and the “vmax ± SEM, dOCT1” value (dog OCT1; OCT1-mediated uptake, HEK293, 2 min, 37 °C, pH 7.4, control cells subtracted) was 1383 ± 112 pmol × min^−1 × mg Protein^−1. For the same compound, the “difference in uptake kinetics between dog and human OCT1, in words” value (dog OCT1; dog OCT1 versus human OCT1) was “no significant differences”, the “fold higher transport capacity by dog than mouse OCT1” value (dog OCT1; dog OCT1 versus mouse OCT1) was 1.8 fold and the “fold lower affinity by dog than mouse OCT1” value (dog OCT1; dog OCT1 versus mouse OCT1) was 2.9 fold. For the same compound, the Km at 2 min (dog OCT1; HEK293 cells stably overexpressing dog OCT1, pH 7.4) was 18.7 ± 3.32 µM, the “CLint ± SEM, dOCT1” value (dog OCT1) was 80.5 ± 12.3 µL × min^−1 × mg Protein^−1 and the “CLint ± SEM, dOCT1” value (dog OCT1; listed as butylscopolamine) was 122 µL × min^−1 × mg Protein^−1.

For `CC(Cc1ccc(O)cc1)NCC(O)c1cc(O)cc(O)c1` (stereo not shown) [Fenoterol, Fenoterol hydrochloride], the “CLint ± SEM, mOCT1” value (mouse OCT1) was 88.5 ± 15.5 µL × min^−1 × mg Protein^−1, the “CLint ± SEM, mOCT1” value (mouse OCT1; listed as fenoterol) was 88.5 µL × min^−1 × mg Protein^−1 and the “CLint ± SEM, hOCT2” value (human OCT2) was 28.0 ± 0.95 µL × min^−1 × mg Protein^−1. For the same compound, the “fold higher affinity (human OCT1 relative to dog OCT1, as worded in the discussion)” value (human OCT1; discussion wording, direction not spelled out) was 14.3 fold, the “CLint ± SEM, hOCT1” value (human OCT1) was 88.3 ± 3.85 µL × min^−1 × mg Protein^−1 and the “CLint ± SEM, hOCT1” value (human OCT1; listed as fenoterol) was 88.3 µL × min^−1 × mg Protein^−1. For the same compound, the “fold lower affinity (higher KM) by dog OCT1 than human OCT1” value (dog OCT1; dog OCT1 versus human OCT1) was 14.3 fold, the Km at 2 min (dog OCT1; pH 7.4) was 16.8 ± 1.09 µM and the “CLint ± SEM, dOCT1” value (dog OCT1) was 80.7 ± 7.76 µL × min^−1 × mg Protein^−1. The “CLint ± SEM, dOCT1” value (dog OCT1; listed as fenoterol) was 80.7 µL × min^−1 × mg Protein^−1.
